Values joined by “and” are separate entries in the source; they are usually repeats but may differ in a detail not shown here. Identical values can stand only once. Like-named read-outs stand apart in the source and are kept apart here.
Biological target: T1, estrogen receptors (ER) (Homo sapiens, UniProt P03372)
T1 sequence (P03372 1-595): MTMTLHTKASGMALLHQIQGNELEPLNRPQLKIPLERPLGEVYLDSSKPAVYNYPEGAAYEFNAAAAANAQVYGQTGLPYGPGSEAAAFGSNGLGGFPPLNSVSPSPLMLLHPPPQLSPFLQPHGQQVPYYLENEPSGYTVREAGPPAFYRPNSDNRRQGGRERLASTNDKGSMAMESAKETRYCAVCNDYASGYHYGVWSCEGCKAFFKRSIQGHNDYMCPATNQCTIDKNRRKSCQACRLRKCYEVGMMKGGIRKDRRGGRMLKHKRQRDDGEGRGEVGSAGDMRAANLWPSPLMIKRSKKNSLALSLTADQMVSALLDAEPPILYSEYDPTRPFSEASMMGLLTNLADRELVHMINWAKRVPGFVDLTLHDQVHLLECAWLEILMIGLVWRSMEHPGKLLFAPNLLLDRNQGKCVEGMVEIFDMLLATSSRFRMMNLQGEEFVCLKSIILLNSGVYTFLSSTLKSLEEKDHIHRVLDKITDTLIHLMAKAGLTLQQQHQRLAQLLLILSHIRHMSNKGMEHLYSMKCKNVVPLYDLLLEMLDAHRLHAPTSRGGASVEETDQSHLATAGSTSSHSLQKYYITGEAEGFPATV
Conditions: 4 h; for Total ER protein (%) / protein (%) ER: replicate
Protocol: Prior to NanoBiT Cell-Based Immunoassay, 50,000 cells were seeded in 160 µl of complete growth media per well of a 96-well plate and incubated overnight. […] If necessary, the cell culture media were replaced with serum-free media after the cells were stably adherent on the plate and incubated overnight. To treat cells with activators or inhibitors, medium was changed to 30 µl of medium containing inhibitors. If activation of a specific pathway is needed, the cells were stimulated with 10 µl of medium containing activators. To lyse the cells, 10 µl of lysis buffer containing 0.1% digitonin diluted in 1X immunoassay buffer with protease and phosphatase inhibitors was added and the plates were mixed vigorously for 20 min. Then, 50 µl of an antibody mix containing two primary antibodies against the target protein and NanoBiT detecting antibodies (0.3 µl each per well), diluted in 1X immunoassay buffer was added to the lysates. The plates were incubated at 23 °C for 90 min, followed by the addition of 25 µl of Nano-Glo® reagent consisting of Nano-Glo® Luciferase Assay Substrate mixed with 1X immunoassay buffer. Luminescence was measured using a plate-reading luminometer.
All 96-well assay plates were read using a GloMax® 96 Microplate Luminometer from Promega. The instrument was set to 0.5 s integration time. In order to obtain net change of signal, the reagent background values (signal from the well containing all reagent except primary antibodies) were subtracted from the sample values. To plot and analyze the data, Microsoft Excel and GraphPad Prism® Software were used. IC50 values were determined by using a nonlinear regression fit to a sigmoidal dose response (variable slope).

[1] = Fulvestrant 0.0976562 nM, MCF-7, Fig 7c
[2] = Fulvestrant 0.195312 nM, MCF-7, Fig 7c
[3] = Fulvestrant 0.390625 nM, MCF-7, Fig 7c
[4] = Fulvestrant 0.78125 nM, MCF-7, Fig 7c
[5] = Fulvestrant 1.5625 nM, MCF-7, Fig 7c
[6] = Fulvestrant 3.125 nM, MCF-7, Fig 7c
[7] = Fulvestrant 6.25 nM, MCF-7, Fig 7c
[8] = Fulvestrant 25 nM, MCF-7, Fig 7c
[9] = Fulvestrant 50 nM, MCF-7, Fig 7c
[10] = Fulvestrant 100 nM, MCF-7, Fig 7c

Average Total ER protein (%) (0.0976562 nM, MCF-7, Fig 7b): 100%
Raw data ER (0.0976562 nM, MCF-7, Fig 7b): 1203000 and 1328000
Subtract reagent background ER (0.0976562 nM, MCF-7, Fig 7b): 1167700 and 974100 and 1096600
Total ER protein (%) (0.0976562 nM, MCF-7, Fig 7b): 102.1% and 102.0%
Raw data ER (0.195312 nM, MCF-7, Fig 7b): 1310000 and 1183000 and 1306000
Subtract reagent background ER (0.195312 nM, MCF-7, Fig 7b): 1076600 and 955300 and 1077400
Total ER protein (%) (0.195312 nM, MCF-7, Fig 7b): 94.2% and 100.2%
Average Total ER protein (%) (0.390625 nM, MCF-7, Fig 7b): 88%
Raw data ER (0.390625 nM, MCF-7, Fig 7b): 1176000 and 1121000
Subtract reagent background ER (0.390625 nM, MCF-7, Fig 7b): 945500 and 891700 and 1008700
Total ER protein (%) (0.390625 nM, MCF-7, Fig 7b): 82.7% and 87.9% and 93.8%
Average Total ER protein (%) (0.78125 nM, MCF-7, Fig 7b): 73%
Raw data ER (0.78125 nM, MCF-7, Fig 7b): 1017000 and 962500 and 1057000
Subtract reagent background ER (0.78125 nM, MCF-7, Fig 7b): 788000 and 733700 and 828700
Total ER protein (%) (0.78125 nM, MCF-7, Fig 7b): 68.9% and 72.3% and 77.1%
Average Total ER protein (%) (1.5625 nM, MCF-7, Fig 7b): 52%
Raw data ER (1.5625 nM, MCF-7, Fig 7b): 787000 and 772400 and 799700
Subtract reagent background ER (1.5625 nM, MCF-7, Fig 7b): 564400 and 548300 and 571400
Total ER protein (%) (1.5625 nM, MCF-7, Fig 7b): 49.4% and 54.1% and 53.2%
Average Total ER protein (%) (3.125 nM, MCF-7, Fig 7b): 36%
Raw data ER (3.125 nM, MCF-7, Fig 7b): 594200 and 628300
Subtract reagent background ER (3.125 nM, MCF-7, Fig 7b): 405200 and 370300 and 399100
Total ER protein (%) (3.125 nM, MCF-7, Fig 7b): 35.4% and 36.5% and 37.1%
Average Total ER protein (%) (6.25 nM, MCF-7, Fig 7b): 29%
Raw data ER (6.25 nM, MCF-7, Fig 7b): 540300 and 521900
Subtract reagent background ER (6.25 nM, MCF-7, Fig 7b): 294500 and 313200
Total ER protein (%) (6.25 nM, MCF-7, Fig 7b): 27.5% and 29.0% and 29.1%
Average Total ER protein (%) (25 nM, MCF-7, Fig 7b): 23%
Raw data ER (25 nM, MCF-7, Fig 7b): 474000 and 455500 and 481300
Subtract reagent background ER (25 nM, MCF-7, Fig 7b): 248500 and 229500 and 255100
Total ER protein (%) (25 nM, MCF-7, Fig 7b): 21.7% and 22.6% and 23.7%
Average Total ER protein (%) (50 nM, MCF-7, Fig 7b): 22%
Raw data ER (50 nM, MCF-7, Fig 7b): 467500 and 453000 and 467700
Subtract reagent background ER (50 nM, MCF-7, Fig 7b): 244000 and 227100 and 240600
Total ER protein (%) (50 nM, MCF-7, Fig 7b): 21.3% and 22.4%
Average Total ER protein (%) (100 nM, MCF-7, Fig 7b): 21%
Raw data ER (100 nM, MCF-7, Fig 7b): 455900 and 441400 and 453000
Subtract reagent background ER (100 nM, MCF-7, Fig 7b): 231900 and 220300 and 227600
Total ER protein (%) (100 nM, MCF-7, Fig 7b): 20.3% and 21.7% and 21.2%
Average ER protein (%) [1]: 104.6%
Raw data ER [1]: 1438000 and 1444000 and 1315000
Subtract reagent background ER [1]: 1210700 and 1216700 and 1087700
protein (%) ER [1]: 106.1% and 108.4% and 99.4%
Average ER protein (%) [2]: 107.5%
Raw data ER [2]: 1431000 and 1445000 and 1414000
Subtract reagent background ER [2]: 1204100 and 1218100 and 1187100
protein (%) ER [2]: 105.5% and 108.5% and 108.4%
Average ER protein (%) [3]: 98.2%
Raw data ER [3]: 1290000 and 1346000 and 1340000
Subtract reagent background ER [3]: 1063550 and 1119550 and 1113550
protein (%) ER [3]: 93.2% and 99.7% and 101.7%
Average ER protein (%) [4]: 82.3%
Raw data ER [4]: 1111000 and 1176000
Subtract reagent background ER [4]: 884650 and 927650 and 949650
protein (%) ER [4]: 77.5% and 82.6% and 86.7%
Average ER protein (%) [5]: 59.5%
Raw data ER [5]: 890700 and 898000 and 891300
Subtract reagent background ER [5]: 663400 and 670700 and 664000
protein (%) ER [5]: 58.2% and 59.7% and 60.7%
Average ER protein (%) [6]: 41.1%
Raw data ER [6]: 677900 and 688400 and 691000
Subtract reagent background ER [6]: 452050 and 462550 and 465150
protein (%) ER [6]: 39.6% and 41.2% and 42.5%
Average ER protein (%) [7]: 31.0%
Raw data ER [7]: 573300 and 576800 and 566100
Subtract reagent background ER [7]: 351400 and 340700
protein (%) ER [7]: 30.5% and 31.3% and 31.1%
Average ER protein (%) [8]: 24.2%
Raw data ER [8]: 499600 and 500900 and 484100
Subtract reagent background ER [8]: 275200 and 276500 and 259700
protein (%) ER [8]: 24.1% and 24.6% and 23.7%
Average ER protein (%) [9]: 22.7%
Raw data ER [9]: 476500 and 482700 and 473700
Subtract reagent background ER [9]: 253450 and 259650 and 250650
protein (%) ER [9]: 22.2% and 23.1% and 22.9%
Average ER protein (%) [10]: 20.4%
Raw data ER [10]: 453900 and 451400 and 438800
Subtract reagent background ER [10]: 234150 and 231650 and 219050
protein (%) ER [10]: 20.5% and 20.6% and 20.0%
lowering of total ER protein level (MCF-7 cells, titration): over 80%
Compound: C[C@]12CC[C@@H]3c4ccc(O)cc4C[C@@H](CCCCCCCCC[S+]([O-])CCCC(F)(F)C(F)(F)F)[C@H]3[C@@H]1CC[C@@H]2O (some centres unmarked) [Fulvestrant]

— article PMC6941952, “A homogeneous bioluminescent immunoassay to probe cellular signaling pathway regulation” (Communications Biology, 2020)
